Data set [1] addresses T1, Estrogen Receptor (ERα) in MCF-7 cells (Homo sapiens (Human), UniProt P03372). In words: MCF-7 ER down-regulation assay (immuno-fluorescence). The format is cell-based. A digest of the protocol: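 Compounds dispensed acoustically from DMSO stocks onto MCF-7 cells; cells fixed 20 min at room temperature, then automated immunostaining for ERα with overnight incubation at 4° C. Read-out is mean total ER fluorescence intensity normalized to cell number (intensity per cell), with curve fitting for concentration-response values.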

Data set [2] deals with estrogen receptor (ERα) in CAMA-1 cells (Homo sapiens (Human), UniProt P03372). Briefly: Western blotting assay, ER down-regulation in CAMA-1. As to conditions: 100 nM compound, 48 h, normalised to 100 nM fulvestrant. The format is cell-based. On the procedure: (§1) Cells were incubated with compounds (100 nM) or vehicle control (0.1% DMSO) for 48 h at 37° C., 5% CO2 before washing once with PBS and lysing with 80 μl lysis buffer (25 mM Tris/HCl, 3 mM EDTA, 3 mM EGTA, 50 mM NaF, 2 mM sodium orthovanadate, 0.27 M sucrose, 10 mM β-glycerophosphate, 5 mM sodium pyrophosphate, 0.5% TritonX-100, pH 6.8) on ice.
Chain of estrogen receptor (ERα) in CAMA-1 cells (P03372 whole entry): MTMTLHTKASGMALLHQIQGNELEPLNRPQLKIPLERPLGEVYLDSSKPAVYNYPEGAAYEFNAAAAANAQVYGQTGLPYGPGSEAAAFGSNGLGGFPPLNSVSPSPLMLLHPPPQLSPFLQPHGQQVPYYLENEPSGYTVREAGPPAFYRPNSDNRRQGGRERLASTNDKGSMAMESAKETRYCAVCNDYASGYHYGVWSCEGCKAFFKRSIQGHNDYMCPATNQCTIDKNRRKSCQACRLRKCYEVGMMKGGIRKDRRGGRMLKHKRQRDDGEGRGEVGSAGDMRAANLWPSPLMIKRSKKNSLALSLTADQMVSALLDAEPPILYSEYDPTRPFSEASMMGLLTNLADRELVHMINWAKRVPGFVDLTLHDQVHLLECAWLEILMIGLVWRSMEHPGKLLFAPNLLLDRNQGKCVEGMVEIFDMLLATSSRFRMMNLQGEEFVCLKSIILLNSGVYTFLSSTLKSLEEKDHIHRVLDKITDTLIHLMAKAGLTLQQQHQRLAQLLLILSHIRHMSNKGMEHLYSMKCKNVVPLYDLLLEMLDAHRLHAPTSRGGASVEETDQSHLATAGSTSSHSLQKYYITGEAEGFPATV
(§2) Samples were boiled for 10 min at 95° C. and then frozen at −20° C. until ready for use.
(§3) The blot was stained with Ponceau S (P7170, Sigma) and cut according to appropriate molecular weight markers.
(§4) Membranes were blocked for 1 hour at room temp in 5% Marvel (w/v) in phosphate-buffered saline containing 0.05% Tween™ 20 (PBS/Tween). Blots were then incubated with anti-ERα (SP1) rabbit monoclonal antibody (Thermofisher) diluted 1:1000 at 4° C. overnight (with gentle shaking) followed by several washes with PBS/Tween. […] All antibodies were made up in 5% Marvel (w/v) in PBS/Tween.
(§5) Down-regulation of the ERα receptor was normalised to the vehicle control (0% down-regulation) and the 100 nM fulvestrant control (100% down-regulation) run within the same gel.
Background: In western blotting, separated proteins are transferred to a membrane and probed.

For data set [3], the target named is T1, Estrogen Receptor (ERα) in MCF-7 cells. Briefly: Western blotting assay, ER down-regulation in MCF-7. The format is cell-based. To be noted: 100 nM compound, 48 h, normalised to 100 nM fulvestrant. On the procedure: as §1, §2, §3, §4, §5
The nature of data set [4]: Human Caco-2 bidirectional permeability A to B and B to A. The format is in vitro ADME. To be noted: for Papp at 2 h: Caco-2, 2 hours, pH 7.4; for efflux ratio at 2 h: Caco-2, pH 7.4. On the technique in general: Caco-2 cells form a polarised layer with tight junctions and transporters.
Data set [5] can be described thus: Human hepatocyte assay (metabolic stability). The format is in vitro ADME. To be noted: human hepatocytes. As for the experimental part: The metabolic stability of compounds in human hepatocytes was assessed using the following protocol: • 1. Prepare 10 mM stock solutions of compound and control compounds in appropriate solvent (DMSO). Place incubation medium (L-15 Medium) in a 37° C. water bath, and allow warming for at least 15 minutes prior to use. • 2. Add 80 μL of acetonitrile to each well of the 96-well deep well plate (quenching plate). • 3. In a new 96-well plate, dilute the 10 mM test compounds and the control compounds to 100 μM by combining 198 μL of acetonitrile and 2 μL of 10 mM stock. • 4. Remove a vial of cryopreserved (less than −150° C.) human hepatocytes (LiverPool™ 10 Donor Human hepatocytes obtained from Celsis IVT. Chicago, Ill. (Product No. S01205)) from storage, ensuring that vials remain at cryogenic temperatures until thawing process ensues. As quickly as possible, thaw the cells by placing the vial in a 37° C. water bath and gently shaking the vials. Vials should remain in water bath until all ice crystals have dissolved and are no longer visible. After thawing is complete, spray vial with 70% ethanol, transfer the vial to a bio-safety cabinet. • 5. Open the vial and pour the contents into the 50 mL conical tube containing thawing medium. Place the 50 mL conical tube into a centrifuge and spin at 100 g for 10 minutes. […] Using Cellometer® Vision, count cells and determine the viable cell density. Cells with poor viability (<80% viability) are not acceptable for use. […] Transfer 247.5 μL of hepatocytes into each well of a 96-well cell culture plate. Place the plate on Eppendorf Thermomixer Comfort plate shaker to allow the hepatocytes to warm for 10 minutes. • 8. Add 2.5 μL of 100 μM test compound or control compounds into an incubation well containing cells, mix to achieve a homogenous suspension at 0.5 min, which when achieved, will define the 0.5 min time point. At the 0.5 min time, transfer 20 μL of incubated mixture to wells in a “Quenching plate” followed by vortexing. • 9. Incubate the plate at 37° C. at 900 rpm on an Eppendorf Thermomixer Comfort plate shaker. […] Centrifuge the quenching plates for 20 minutes at 4,000 rpm. 4 different compounds are pooled into one cassette and used for LC/MS/MS analysis.
All calculations were carried out using Microsoft Excel. Peak areas were determined from extracted ion chromatograms. In vitro intrinsic clearance (in vitro Clint, in […]) of parent compound was determined by regression analysis of the Ln percent parent disappearance vs. time curve.
V=incubation volume (0.25 mL);
N=number of hepatocytes per well (0.25×10^6 cells).

Data set [6] is described as follows: Human Caco-2 passive permeability A to B Papp. The format is in vitro ADME. To be noted: apical pH 6.5, basolateral pH 7.4, efflux inhibitor cocktail. As for the experimental part:
An automated assay was used to determine the passive permeability of compounds in Caco-2 cell monolayers carried out over 2 hours with an apical pH of 6.5 and basolateral pH of 7.4. The Caco-2 AB inhibition assay is carried out with chemical inhibition of the three major efflux transporters ABCB1 (P-gp), ABCG2 (BCRP) and ABCC2 (MRP2) in Caco-2 cells. Incubation of both apical and basolateral is carried out with a cocktail of inhibitors (50 μM quinidine, 20 μM sulfasalazine and 100 μM benzbromarone). Samples were analyzed through LC/MS/MS to estimate the apparent permeability coefficients (Papp) of compounds across Caco-2 cell monolayers and results are quoted in units of ×10^−6 cm/s.

This is an account of results in patent US10131663B2, “Chemical compounds” (AstraZeneca AB, priority 2016, dated 2018).

T1 sequence (P03372 whole entry): as above

For `C[C@@H]1Cc2c(ccc3[nH]ncc23)[C@@H](c2ccc(NC3CN(CCCF)C3)cc2)N1CC(F)(F)F` [Example 27, 1-(3-Fluoropropyl)-N-(4-((6R,8R)-8-methyl-7-(2,2,2-trifluoroethyl)-6,7,8,9-tetrahydro-3H-pyrazolo[4,3-f]isoquinolin-6-yl)phenyl)azetidin-3-amine], the midpoint of inhibition in data set [1], the IC50, lay at 0.05 nM. Besides, the “CAMA1 Western % ER deg vs Fv” value in data set [2] worked out at 108%. In addition, in data set [3], the “MCF7 Western % ER deg vs Fv” value was 110%. Moreover, in data set [4], the apparent permeability coefficient (Papp) (usually the rate of passage across a membrane or cell layer, normalised by area and donor concentration) at 2 h was found to be 5.4 ×10⁻⁶ cm/s; the efflux ratio (as a rule, a quotient of directional permeabilities that is used to spot active efflux) at 2 h was 0.9.
For `C[C@@H]1Cc2c(ccc3[nH]nc(F)c23)[C@@H](c2ncc(NC3CN(CCCF)C3)cc2F)N1CC(F)(F)F` [Example 33, 5-Fluoro-6-((6S,8R)-1-fluoro-8-methyl-7-(2,2,2-trifluoroethyl)-6,7,8,9-tetrahydro-3H-pyrazolo[4,3-f]isoquinolin-6-yl)-N-(1-(3-fluoropropyl)azetidin-3-yl)pyridin-3-amine] the same measures were 0.1 nM, 102%, 98%, 2.6 ×10⁻⁶ cm/s and 1.5.
Turning to `COc1cc(NC2CN(CCCF)C2)ccc1[C@@H]1c2ccc3[nH]ncc3c2C[C@@H](C)N1CC(C)(F)F` [Example 19, N-(4-((6S,8R)-7-(2,2-difluoropropyl)-8-methyl-6,7,8,9-tetrahydro-3H-pyrazolo[4,3-f]isoquinolin-6-yl)-3-methoxyphenyl)-1-(3-fluoropropyl)azetidin-3-amine], the IC50 (commonly the concentration needed to halve the response being measured) in data set [1] stood at 0.063 nM. In addition, the “CAMA1 Western % ER deg vs Fv” value in data set [2] came to 94%. Besides, the “MCF7 Western % ER deg vs Fv” value in data set [3] came out at 92%. Moreover, the hepatocyte CLint (in general, the rate of metabolic loss divided by the concentration) at 1 µM in data set [5] worked out at 5 µL/min/1e6 cells. In data set [4], the Papp at 2 h was found to be 4.2 ×10⁻⁶ cm/s and the efflux ratio at 2 h stood at 2.6.
With `C[C@@H]1Cc2c(ccc3[nH]ncc23)[C@@H](c2ncc(NC3CN(CCCF)C3)cc2F)N1CC(F)(F)F` [Example 30, 5-fluoro-N-(1-(3-fluoropropyl)azetidin-3-yl)-6-((6S,8R)-8-methyl-7-(2,2,2-trifluoroethyl)-6,7,8,9-tetrahydro-3H-pyrazolo[4,3-f]isoquinolin-6-yl)pyridin-3-amine], half-maximal inhibition in data set [1] (IC50) was put at 0.28 nM. In data set [2], the “CAMA1 Western % ER deg vs Fv” value is 98%. Besides, in data set [3], the “MCF7 Western % ER deg vs Fv” value was 96%. Also, in data set [4], the Papp at 2 h came out at 2.7 ×10⁻⁶ cm/s and the efflux ratio at 2 h worked out at 7.8.
As for `COCC(F)(F)CN1[C@H](c2ccc(NC3CN(CCCF)C3)cc2OC)c2ccc3[nH]ncc3c2C[C@H]1C` [Example 1, N-(4-((6S,8R)-7-(2,2-difluoro-3-methoxypropyl)-8-methyl-6,7,8,9-tetrahydro-3H-pyrazolo[4,3-f]isoquinolin-6-yl)-3-methoxyphenyl)-1-(3-fluoropropyl)azetidin-3-amine], half-maximal inhibition in data set [1] (IC50) was put at 0.1 nM. In addition, in data set [2], the “CAMA1 Western % ER deg vs Fv” value is recorded as 92%. Further, in data set [3], the “MCF7 Western % ER deg vs Fv” value is reported as 91%. In data set [5], this compound gave a hepatocyte CLint at 1 µM of 11 µL/min/1e6 cells. Moreover, in data set [4], the Papp at 2 h was 0.9 ×10⁻⁶ cm/s and the efflux ratio at 2 h amounted to 9.4.
In turn, `COc1cc(NC2CN(CCCF)C2)ccc1[C@@H]1c2ccc3[nH]ncc3c2C[C@@H](C)N1CC(C)(C)F` [Example 64, N-(4-((6S,8R)-7-(2-fluoro-2-methylpropyl)-8-methyl-6,7,8,9-tetrahydro-3H-pyrazolo[4,3-f]isoquinolin-6-yl)-3-methoxyphenyl)-1-(3-fluoropropyl)azetidin-3-amine] returned a concentration for half-maximal inhibition (IC50) in data set [1] of 0.22 nM. Moreover, the “CAMA1 Western % ER deg vs Fv” value in data set [2] worked out at 89%. For the same compound, the “MCF7 Western % ER deg vs Fv” value in data set [3] was 86%. Also, in data set [4], the Papp at 2 h worked out at 2 ×10⁻⁶ cm/s and the efflux ratio at 2 h stood at 5.6.
`COCC(F)(F)CN1[C@H](c2ccc(NC3CN(CCCF)C3)cn2)c2ccc3[nH]ncc3c2C[C@H]1C` [Example 2, 6-((6S,8R)-7-(2,2-difluoro-3-methoxypropyl)-8-methyl-6,7,8,9-tetrahydro-3H-pyrazolo[4,3-f]isoquinolin-6-yl)-N-(1-(3-fluoropropyl)azetidin-3-yl)pyridin-3-amine]: it took 3.1 nM to reach half-maximal inhibition in data set [1] (IC50). The “CAMA1 Western % ER deg vs Fv” value in data set [2] is given as 95%. The “MCF7 Western % ER deg vs Fv” value in data set [3] was 93%. This compound also gave a hepatocyte CLint at 1 µM in data set [5] of 6 µL/min/1e6 cells. Moreover, in data set [4], the Papp at 2 h turned out to be 3.9 ×10⁻⁶ cm/s and the efflux ratio at 2 h is 8.4.
For the compound `C[C@@H]1Cc2c(ccc3[nH]ncc23)[C@@H](c2ccc(NC3CN(CCCF)C3)cn2)N1CC(F)(F)CO` [Example 16, 2,2-difluoro-3-((6S,8R)-6-(5-((1-(3-fluoropropyl)azetidin-3-yl)amino)pyridin-2-yl)-8-methyl-3,6,8,9-tetrahydro-7H-pyrazolo[4,3-f]isoquinolin-7-yl)propan-1-ol], in data set [1], inhibition was half-maximal at 0.54 nM (IC50). Also, the “CAMA1 Western % ER deg vs Fv” value in data set [2] came out at 105%. For the same compound, the “MCF7 Western % ER deg vs Fv” value in data set [3] turned out to be 104%. Moreover, the figures for the apparent permeability (Papp) at 2 h in data set [4] and in data set [6] were 1.6 ×10⁻⁶ cm/s and 1.7 ×10⁻⁶ cm/s, respectively. Besides, the efflux ratio at 2 h in data set [4] was 9.7.
On to `C[C@@H]1Cc2c(ccc3[nH]ncc23)[C@@H](c2ncc(NC3CN(CCCF)C3)cc2F)N1CC1(F)CC1` [Example 18, 5-fluoro-6-((6S,8R)-7-((1-fluorocyclopropyl)methyl)-8-methyl-6,7,8,9-tetrahydro-3H-pyrazolo[4,3-f]isoquinolin-6-yl)-N-(1-(3-fluoropropyl)azetidin-3-yl)pyridin-3-amine], for which, in data set [1], the IC50 is 0.42 nM. The “CAMA1 Western % ER deg vs Fv” value in data set [2] was 95%. Moreover, the “MCF7 Western % ER deg vs Fv” value in data set [3] turned out to be 103%. The compound also came in with a hepatocyte CLint at 1 µM in data set [5] of 3 µL/min/1e6 cells.
For `C[C@@H]1Cc2c(ccc3[nH]ncc23)[C@@H](c2ccc(NC3CN(CCCF)C3)cc2)N1CC(F)F` [Example 48, N-(4-((6R,8R)-7-(2,2-difluoroethyl)-8-methyl-6,7,8,9-tetrahydro-3H-pyrazolo[4,3-f]isoquinolin-6-yl)phenyl)-1-(3-fluoropropyl)azetidin-3-amine] the same measures were 0.078 nM, 94%, 93% and 4 µL/min/1e6 cells.
Compound `C[C@@H]1Cc2c(ccc3[nH]ncc23)[C@@H](c2ccc(NC3CN(CCCF)C3)cn2)N1CC1(F)CC1` [Example 3, 6-((6S,8R)-7-((1-fluorocyclopropyl)methyl)-8-methyl-6,7,8,9-tetrahydro-3H-pyrazolo[4,3-f]isoquinolin-6-yl)-N-(1-(3-fluoropropyl)azetidin-3-yl)pyridin-3-amine] registered an IC50 in data set [1] of 0.64 nM. In data set [2], the “CAMA1 Western % ER deg vs Fv” value worked out at 102%. In addition, in data set [3], the “MCF7 Western % ER deg vs Fv” value worked out at 90%. The hepatocyte CLint at 1 µM in data set [5] came out at 5 µL/min/1e6 cells. Moreover, in data set [4], the Papp at 2 h was found to be 2.3 ×10⁻⁶ cm/s and the efflux ratio at 2 h was determined as 9.2.
